How the values were obtained:
Assay in all cases: relative viability (nuclei count vs DMSO), 5 days (fraction); higher = more cells survive
Bicalutamide + Olaparib = compound: CC(O)(CS(=O)(=O)c1ccc(F)cc1)C(=O)Nc1ccc(C#N)c(C(F)(F)F)c1 [Bicalutamide] + O=C(c1cc(Cc2n[nH]c(=O)c3ccccc23)ccc1F)N1CCN(C(=O)C2CC2)CC1 [Olaparib] (partner 8 µM)
Outline: (§1)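 Five library-drug doses in √10 steps were combined with a fixed anchor-drug dose, or a single drug was given alone, by pin tool to lung cancer cell lines in 1536-well plates the day after seeding. Nuclei were stained and counted after 5 days. Relative viability is the nuclei count in treated wells over that in vehicle wells, taken as the median of duplicate plates.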

[1] = compound: C(C(=O)C(=O)O)Br [Bromopyruvate] + CC(=O)Nc1cccc(-n2c(=O)n(C3CC3)c(=O)c3c(Nc4ccc(I)cc4F)n(C)c(=O)c(C)c32)c1 [Trametinib] (partner 0.02 µM)
Outline: as §1

[2] = compound: C(C(=O)C(=O)O)Br [Bromopyruvate] + CCNC(=O)c1noc(-c2cc(C(C)C)c(O)cc2O)c1-c1ccc(CN2CCOCC2)cc1 [Luminespib] (partner 0.01 µM)
Outline: as §1

[3] = compound: CC(O)(CS(=O)(=O)c1ccc(F)cc1)C(=O)Nc1ccc(C#N)c(C(F)(F)F)c1 [Bicalutamide] + CS(=O)(=O)N1CCN(Cc2cc3nc(-c4cccc5[nH]ncc45)nc(N4CCOCC4)c3s2)CC1 [Pictilisib] (partner 1 µM)
Outline: as §1

| Cell Line | relative viability (Bicalutamide + Olaparib; first compound 0.08 µM) | relative viability (Bicalutamide + Olaparib; first compound 0.253 µM) | relative viability (Bicalutamide + Olaparib; first compound 0.8 µM) | relative viability (Bicalutamide + Olaparib; first compound 2.53 µM) | relative viability ([1]; first compound 1 µM) | relative viability ([1]; first compound 3.162 µM) | relative viability ([1]; first compound 10 µM) | relative viability ([1]; first compound 31.62 µM) | relative viability ([1]; first compound 100 µM) | relative viability ([2]; first compound 1 µM) | relative viability ([2]; first compound 3.162 µM) | relative viability ([2]; first compound 10 µM) | relative viability ([2]; first compound 31.62 µM) | relative viability ([2]; first compound 100 µM) | relative viability ([3]; first compound 0.08 µM) | relative viability ([3]; first compound 0.253 µM) | relative viability ([3]; first compound 0.8 µM) | relative viability ([3]; first compound 2.53 µM) |
| --- | --- | --- | --- | --- | --- | --- | --- | --- | --- | --- | --- | --- | --- | --- | --- | --- | --- | --- |
| LXF-289 | 1.04 | 1.08 | 1.18 | 1.01 | 0.671 | 0.653 | 0.627 | 0.693 | 0.67 | 0.744 | 0.71 | 0.779 | 0.808 | 0.753 | 0.759 | 0.728 | 0.855 | 0.757 |
| NCI-H23 | 0.342 | 0.3 | 0.323 | 0.341 | 0.371 | 0.375 | 0.346 | 0.354 | 0.336 | 0.216 | 0.182 | 0.238 | 0.203 | 0.201 | 0.476 | 0.446 | 0.633 | 0.378 |
| NCI-H322M | 0.851 | 0.741 | 0.789 | 0.768 | 0.525 | 0.537 | 0.517 | 0.536 | 0.5 | 0.821 | 0.977 | 0.891 | 0.879 | 0.747 | 0.469 | 0.53 | 0.573 | 0.55 |
| NCI-H358 | 0.664 | 0.519 | 0.706 | 0.595 | 0.145 | 0.132 | 0.139 | 0.128 | 0.133 | 0.429 | 0.397 | 0.554 | 0.322 | 0.31 | 0.385 | 0.361 | 0.301 | 0.303 |
| NCI-H441 | 0.639 | 0.609 | 0.626 | 0.481 | 0.47 | 0.529 | 0.506 | 0.526 | 0.458 | 0.445 | 0.505 | 0.323 | 0.524 | 0.38 | 0.594 | – | 0.513 | 0.426 |
| NCI-H522 | 0.711 | 0.599 | 0.788 | 0.693 | 0.697 | 0.671 | 0.778 | 0.92 | 0.757 | 1.07 | 1.16 | 1.11 | 1.28 | 1.29 | – | – | – | – |
| NCI-H1299 | 0.993 | 0.942 | 0.974 | 0.864 | – | – | – | – | – | – | – | – | – | – | 0.909 | 0.698 | 0.823 | 0.492 |
| NCI-H1563 | – | – | – | – | – | – | – | – | – | 0.482 | 0.559 | 0.489 | 0.466 | 0.532 | 0.641 | 0.596 | 0.644 | 0.599 |
| NCI-H1623 | – | – | – | – | – | – | – | – | – | 0.545 | 0.523 | 0.747 | 0.489 | 0.504 | – | – | – | – |
| NCI-H1648 | – | – | 0.775 | 0.949 | 0.349 | 0.413 | 0.472 | 0.545 | 0.482 | – | – | – | – | – | – | – | – | – |
| NCI-H1703 | 0.431 | 0.387 | 0.391 | 0.231 | – | – | – | – | – | – | – | – | – | – | 0.235 | 0.261 | 0.236 | 0.231 |
| NCI-H2342 | 0.524 | 0.501 | 0.491 | 0.44 | 0.757 | 0.912 | 0.779 | 0.696 | 0.736 | 0.756 | 0.775 | 0.661 | 0.57 | 0.531 | – | – | – | – |
| SW 900 | 0.798 | 0.721 | 1.21 | 0.803 | 0.865 | 0.76 | 0.92 | 0.729 | 0.739 | 0.16 | 0.173 | 0.197 | 0.166 | 0.21 | – | – | – | – |
